# Measurements published in patent US20110105623A1 (Biogenic Innovations, LLC, priority 2009, published 2011).
# Assays:
# [1] = test system: Lactobacillus acidophilus; test: Probiotic growth in media supplemented with MSM; format: cell-based
# Excerpt: (§1) Plates were then counted. […] Data are presented in Cfu/mL.
# Bacillus coagulans = test: Probiotic growth in media supplemented with MSM; format: cell-based; conditions: 0.125% MSM
# Excerpt: as §1
substance,measurement,setting,value
Methylsulfonylmethane [MSM],Growth of Lactobacillus acidophilus,"[1]; 0.125% MSM, 0 h",1.37 log10 CFU/mL
same,Growth of Lactobacillus acidophilus,"[1]; 0.125% MSM, 8 h",2.19 log10 CFU/mL
same,Growth of Lactobacillus acidophilus,"[1]; 0.125% MSM, 16 h",4.83 log10 CFU/mL
same,Growth of Lactobacillus acidophilus,"[1]; 0.125% MSM, 24 h",7.14 log10 CFU/mL
same,Growth of Lactobacillus acidophilus,"[1]; 0.125% MSM, 32 h",9.15 log10 CFU/mL
same,Growth of Lactobacillus acidophilus,"[1]; 0.125% MSM, 40 h",9.53 log10 CFU/mL
same,Growth of Lactobacillus acidophilus,"[1]; 0.125% MSM, 48 h",9.59 log10 CFU/mL
same,Growth of Lactobacillus acidophilus,"[1]; 0.125% MSM, 56 h",10.16 log10 CFU/mL
same,Growth of Lactobacillus acidophilus,"[1]; 0.125% MSM, 64 h",9.40 log10 CFU/mL
same,Growth of Lactobacillus acidophilus,"[1]; 0.125% MSM, 72 h",8.56 log10 CFU/mL
same,Growth of Lactobacillus acidophilus,"[1]; 0.2% MSM, 0 h",1.37 log10 CFU/mL
same,Growth of Lactobacillus acidophilus,"[1]; 0.2% MSM, 8 h",1.43 log10 CFU/mL
same,Growth of Lactobacillus acidophilus,"[1]; 0.2% MSM, 16 h",5.74 log10 CFU/mL
same,Growth of Lactobacillus acidophilus,"[1]; 0.2% MSM, 24 h",8.19 log10 CFU/mL
same,Growth of Lactobacillus acidophilus,"[1]; 0.2% MSM, 32 h",9.85 log10 CFU/mL
same,Growth of Lactobacillus acidophilus,"[1]; 0.2% MSM, 40 h",9.50 log10 CFU/mL
same,Growth of Lactobacillus acidophilus,"[1]; 0.2% MSM, 48 h",9.32 log10 CFU/mL
same,Growth of Lactobacillus acidophilus,"[1]; 0.2% MSM, 56 h",9.26 log10 CFU/mL
same,Growth of Lactobacillus acidophilus,"[1]; 0.2% MSM, 64 h",9.37 log10 CFU/mL
same,Growth of Lactobacillus acidophilus,"[1]; 0.2% MSM, 72 h",8.36 log10 CFU/mL
same,Growth of Lactobacillus acidophilus,"[1]; 0.50% MSM, 0 h",1.30 log10 CFU/mL
same,Growth of Lactobacillus acidophilus,"[1]; 0.50% MSM, 8 h",2.01 log10 CFU/mL
same,Growth of Lactobacillus acidophilus,"[1]; 0.50% MSM, 16 h",3.82 log10 CFU/mL
same,Growth of Lactobacillus acidophilus,"[1]; 0.50% MSM, 24 h",6.47 log10 CFU/mL
same,Growth of Lactobacillus acidophilus,"[1]; 0.50% MSM, 32 h",9.15 log10 CFU/mL
same,Growth of Lactobacillus acidophilus,"[1]; 0.50% MSM, 40 h",9.58 log10 CFU/mL
same,Growth of Lactobacillus acidophilus,"[1]; 0.50% MSM, 48 h",10.45 log10 CFU/mL
same,Growth of Lactobacillus acidophilus,"[1]; 0.50% MSM, 56 h",9.33 log10 CFU/mL
same,Growth of Lactobacillus acidophilus,"[1]; 0.50% MSM, 64 h",9.53 log10 CFU/mL
same,Growth of Lactobacillus acidophilus,"[1]; 0.50% MSM, 72 h",8.57 log10 CFU/mL
same,Growth of Lactobacillus acidophilus,"[1]; 1% MSM, 0 h",1.48 log10 CFU/mL
same,Growth of Lactobacillus acidophilus,"[1]; 1% MSM, 8 h",2.25 log10 CFU/mL
same,Growth of Lactobacillus acidophilus,"[1]; 1% MSM, 16 h",3.79 log10 CFU/mL
same,Growth of Lactobacillus acidophilus,"[1]; 1% MSM, 24 h",6.77 log10 CFU/mL
same,Growth of Lactobacillus acidophilus,"[1]; 1% MSM, 32 h",9.05 log10 CFU/mL
same,Growth of Lactobacillus acidophilus,"[1]; 1% MSM, 40 h",9.49 log10 CFU/mL
same,Growth of Lactobacillus acidophilus,"[1]; 1% MSM, 48 h",10.98 log10 CFU/mL
same,Growth of Lactobacillus acidophilus,"[1]; 1% MSM, 56 h",10.90 log10 CFU/mL
same,Growth of Lactobacillus acidophilus,"[1]; 1% MSM, 64 h",10.34 log10 CFU/mL
same,Growth of Lactobacillus acidophilus,"[1]; 1% MSM, 72 h",8.68 log10 CFU/mL
same,Growth of Lactobacillus acidophilus,"[1]; 5% MSM, 0 h",1.52 log10 CFU/mL
same,Growth of Lactobacillus acidophilus,"[1]; 5% MSM, 8 h",1.37 log10 CFU/mL
same,Growth of Lactobacillus acidophilus,"[1]; 5% MSM, 16 h",2.69 log10 CFU/mL
same,Growth of Lactobacillus acidophilus,"[1]; 5% MSM, 24 h",5.36 log10 CFU/mL
same,Growth of Lactobacillus acidophilus,"[1]; 5% MSM, 32 h",8.91 log10 CFU/mL
same,Growth of Lactobacillus acidophilus,"[1]; 5% MSM, 40 h",9.25 log10 CFU/mL
same,Growth of Lactobacillus acidophilus,"[1]; 5% MSM, 48 h",10.88 log10 CFU/mL
same,Growth of Lactobacillus acidophilus,"[1]; 5% MSM, 56 h",10.01 log10 CFU/mL
same,Growth of Lactobacillus acidophilus,"[1]; 5% MSM, 64 h",8.95 log10 CFU/mL
same,Growth of Lactobacillus acidophilus,"[1]; 5% MSM, 72 h",6.66 log10 CFU/mL
same,Growth of Lactobacillus acidophilus,"[1]; […] MSM, 0 h",1.48 log10 CFU/mL
same,Growth of Lactobacillus acidophilus,"[1]; […] MSM, 8 h",2.20 log10 CFU/mL
same,Growth of Lactobacillus acidophilus,"[1]; […] MSM, 16 h",4.24 log10 CFU/mL
same,Growth of Lactobacillus acidophilus,"[1]; […] MSM, 24 h",5.78 log10 CFU/mL
same,Growth of Lactobacillus acidophilus,"[1]; […] MSM, 32 h",9.16 log10 CFU/mL
same,Growth of Lactobacillus acidophilus,"[1]; […] MSM, 40 h",9.35 log10 CFU/mL
same,Growth of Lactobacillus acidophilus,"[1]; […] MSM, 48 h",10.16 log10 CFU/mL
same,Growth of Lactobacillus acidophilus,"[1]; […] MSM, 56 h",11.10 log10 CFU/mL
same,Growth of Lactobacillus acidophilus,"[1]; […] MSM, 64 h",11.58 log10 CFU/mL
same,Growth of Lactobacillus acidophilus,"[1]; […] MSM, 72 h",8.44 log10 CFU/mL
same,Growth of Bacillus coagulans,Bacillus coagulans; 0 h,1.52 log10 CFU/mL
same,Growth of Bacillus coagulans,Bacillus coagulans; 8 h,4.81 log10 CFU/mL
same,Growth of Bacillus coagulans,Bacillus coagulans; 16 h,6.95 log10 CFU/mL
same,Growth of Bacillus coagulans,Bacillus coagulans; 24 h,9.87 log10 CFU/mL
same,Growth of Bacillus coagulans,Bacillus coagulans; 32 h,11.06 log10 CFU/mL
same,Growth of Bacillus coagulans,Bacillus coagulans; 40 h,11.72 log10 CFU/mL
same,Growth of Bacillus coagulans,Bacillus coagulans; 48 h,11.56 log10 CFU/mL
same,Growth of Bacillus coagulans,Bacillus coagulans; 56 h,9.60 log10 CFU/mL
